# According to patent US20210128596A1, “COMPOSITIONS AND METHODS FOR TREATING SEPTIC CARDIOMYOPATHY” (UNIVERSITY OF PENNSYLVANIA, priority 2017, published 2021):
# Entries after “also recorded” stand apart in the source; their conditions may differ.
# Key:
# AC16 cells = assay: Mitochondrial superoxide (MitoSOX Red) in LPS-treated AC16 cells; assay type: cell-based, human; conditions: LPS 12 h with SDG/LGM2605 (50 μM)
# Experimental: AC16 cells were either left untreated or treated for 12 hours with Liposaccharide (LPS) in the absence or presence of SDG, and subsequently stained with mitosox red.
# Measurement of mitochondrial superoxide, mitochondrial membrane potential and mitochondrial number—AC16 cells were cultured in sterile cell culture dishware at approximately 80% confluence. After overnight incubation, cells were treated with LPS (1 μg/ml), LPS and LGM2605 (50 μM). LPS and LGM2605 were diluted in serum free media and the control group was incubated as well with serum free media. At 12 hours after the treatment the AC16 cells were loaded with mitochondrial superoxide indicator MitoSOX Red (5 μM, M36008, Molecular Probes) and incubated for 30 minutes in the dark. Excess MitoSOX Red was removed following three washes with PBS solution. MitoSOX Red fluorescence was recorded at 510 (excitation) and 580 nm (emission).
# [1] = test system: adult cardiomyocytes isolated from septic mice; assay: Seahorse oxygen consumption rate in cardiomyocytes isolated from septic mice; assay type: in vivo, mouse
# Experimental: Mice were either sham treated or subjected to cecal ligation puncture followed by SDG treatment. The oxygen consumption rate (OCR) was measured in a seahorse assay.
# Adult mouse cardiomyocytes isolation—Adult mouse cardiomyocytes (ACMs) were isolated from ventricles of C57BL/6 mice 12 hours post-sham surgery, CLP surgery or combined performance of CLP and treatment with LGM2605 at 6 hours post-surgery. Hearts from heparinized mice (90 USP; ip) were cannulated through the aorta. Hearts were perfused with perfusion buffer (120.4 mMNaCl, 14.7 mM KCL, 0.6 mM NaH2PO4, 0.6 mM KH2PO4, 1.2 mM MgSO4, 10 mM Hepes, 4.6 mM NaHCO3, 30 mMtaurine, 10 mM BDM, 5.5 mM glucose; pH 7.4) for 3 min followed by digestion with perfusion buffer containing 19250 units Collagenese type II (Worthington), 5-6 mg trypsin and 0.02 mM CaCl2 for 7 min. Ventricles were gently teared into small pieces, perfusion buffer containing 5 mg/ml BSA and 0.125 mM CaCl2 was added and filtered with 100 μm nylon. The filtrate was pelleted by gravity for 5 min, centrifuged for 30 sec at 700 rpm and the pellet resuspended in perfusion buffer containing 5 mg/ml BSA and 0.225 mM CaCl2. The cells were pelleted by gravity for 10 min, centrifuged for 30 sec at 700 rpm and the pellet resuspended in perfusion buffer containing 5 mg/ml BSA and 0.525 mM CaCl2.
# Seahorse analysis—Isolated primary ACMs were counted with Hematocytometer. Dead cells were detected with Trypan Blue Dye staining. Cells were platted (3000 cells per well) in XF96 Seahorse® plates pre-coated with laminin with 20 μg/ml laminin (Invitrogen, 23017). In order to assess oxygen consumption rates (OCR) for fatty acid oxidation (FAO) recordings, cells were incubated in substrate limited medium (DMEM containing 10 mM Glucose, 1.025 mM CaCl2, 0.5 mM carnitine, pH=7.4) and assayed with fatty acid oxidation medium as per manufacturer's protocol. Before starting the assay, 1 mM palmitate conjugated with BSA was added in each well. Drugs used for maximal response during fatty acid oxidation were: Oligomycin (3 μM) (Sigma, 04875) which blocks complex V, FCCP (2 μM) (Sigma, C2920) that leads to the collapse of the proton gradient, and Rotenone/Antimycin A (0.5 μM) (Sigma, A8674)/(Sigma, R8875) where rotenone blocks complex I and antimycin A blocks complex III. The pre-hydrated with XF assay calibrant, XF cartridges were filled with the drugs and the cartridge was calibrated for 30 minutes in Seahorse Analyzer. All experiments were performed at 37° C. Calculations were made as described in the Seahorse manual and XF Seahorse Mito Stress Test kit user guide. Briefly, basal respiration was calculated with subtraction of non-mitochondrial respiration rate from the last measurement prior to first injection. Maximal respiration was calculated by subtraction of the non-mitochondrial respiration measurement from maximum measurement after FCCP injection. ATP synthesis-related OCR was obtained indirectly by measuring ATP-linked respiration in the presence of complex V inhibitor (Oligomycin). The decrease of oxygen consumption rate representing the portion of basal respiration that was used to drive ATP synthesis was calculated with subtraction of the minimum measurement after Oligomycin injection from the last measurement prior to Oligomycin injection. Spare Respiratory Capacity was equal to (maximum respiration)−(basal respiration).
# IL-1α, IL-1β, IL-6, TNFα = assay: Cardiac mRNA expression of inflammatory cytokines; assay type: in vivo, mouse; conditions: 6 hours or 12 hours post-CLP
# Experimental: (§1) RNA purification and gene expression analysis—Total RNA was purified from AC16 cells or hearts using the TRIzol reagent according to the instructions of the manufacturer (Invitrogen). DNase-treated RNA was used for cDNA synthesis using the ProtoScript II First Strand cDNA Synthesis Kit (New England Biolabs). Quantitative real-time PCR was performed with the Sybr Select Master Mix (Applied Biosystems). Incorporation of the SYBR green dye into the PCR products was monitored with the Applied Biosystems StepOnePlus Real-Time PCR System. Samples were normalized against mouse 36B4 or human rps13 RNA.
# C57BL/6 mice = assay: In vivo cardiac adrenergic sensitivity (hemodynamics, isoproterenol); set-up: species or system mouse; conditions: 12 h post-CLP, LGM2605 6 h post-CLP
# Experimental: In vivo cardiac adrenergic sensitivity measurements—Hemodynamics measurements were performed, as published^21. Mice were anesthetized with 2% Tribromoethanol (Avertin). The right carotid artery was cannulated with a 1.4 French micro-manometer (Millar Instruments, Houston, Tex.) and was advanced into LV cavity, measuring LV pressure, LV end-diastolic pressure (LVEDP) and heart rate (HR). These parameters as well as maximal values of the instantaneous first derivative of LV pressure (+dP/dtmax, as a measure of cardiac contractility) and minimum values of the instantaneous first derivative of LV pressure (−dP/dtmin, as a measure of cardiac relaxation) were recorded at baseline and after administration, through the jugular vein, of increasing doses of the β-adrenergic receptor (βAR) agonist, isoproterenol (0.1 ng, 0.5 ng, 1 ng, 5 ng, 10 ng). Data was recorded and analyzed on a PowerLab System (AD Instruments).
# [2] = test system: cardiac tissue isolated from septic mice; assay: Autophagy markers (LC3BII/LC3BI, Map1lc3b, BNIP3) in cardiac tissue; assay type: in vivo, mouse
# Experimental: as §1
# Protein purification and analysis—Isolated heart tissue or AC16 cells were homogenized in radioimmune precipitation assay buffer containing protease and phosphatase inhibitors (Pierce Protease and Phosphatase Inhibitor Mini Tablets, Thermo Scientific). 30-50 μg of total protein extract was applied to SDS-PAGE and transferred onto nitrocellulose membranes.
# [3] = CLP + LGM2605 (6 hrs post-CLP), cardiomyocytes 12 hrs after surgery
smiles,measurement,setting,value
"COc1cc(C[C@@H](CO[C@@H]2O[C@H](CO)[C@@H](O)[C@H](O)[C@H]2O)[C@H](CO[C@@H]2O[C@H](CO)[C@@H](O)[C@H](O)[C@H]2O)Cc2ccc(O)c(OC)c2)ccc1O [LGM2605, secoisolariciresinol diglucoside]",mitochondrial superoxide levels (Mitosox Red staining),AC16 cells,suppressed by LGM2605
same,mitochondrial superoxide levels (Mitosox Red staining),AC16 cells; listed as SDG,statistically significant decrease in superoxide levels in LPS-treated cells; also recorded: lower mitosox red staining
same,basal respiration and oxygen consumption rate associated with ATP synthesis,[1]; [3],"increased basal respiration levels (FIG. 18B) and oxygen consumption rate associated with ATP synthesis (FIG. 18C), compared to both CLP and sham mice"
same,maximal respiration and respiratory spare capacity,[1]; [3],markedly elevated by LGM2605 treatment
same,"maximal respiration, ATP production, non-mitochondrial oxygen consumption",[1]; CLP + SDG relative to levels observed after CLP,"statistically significant increase in maximal respiration, ATP production, and non-mitochondrial oxygen consumption relative to levels observed after CLP"
same,"basal respiration, maximal respiration, ATP production, non-mitochondrial oxygen consumption",[1]; CLP + SDG relative to the untreated levels,"statistically significant increase in basal respiration, maximal respiration, ATP production, and non-mitochondrial oxygen consumption relative to the untreated levels"
same,oxygen consumption rate (OCR),"[1]; CLP followed by SDG treatment vs CLP and sham, listed as SDG",more than compensated for that decrease; also recorded: increased oxygen consumption rate (OCR) compared to CLP alone and sham operated mice
same,proton leakage,"[1]; sham, CLP, CLP + SDG",no statistically significant changes in proton leakage were observed
same,"cardiac mRNA levels of IL-1α, IL-1β, IL-6, and TNFα","IL-1α, IL-1β, IL-6, TNFα",did not reduce mRNA levels
same,responsiveness to isoproterenol,C57BL/6 mice,less robust in both septic groups regardless of LGM2605 treatment
same,basal LVdP/dtmax and LVdP/dtmin,C57BL/6 mice; compared to sham surgery,lower basal myocardial LVdP/dtmax (FIG. 14B) and LVdP/dtmin (FIG. 14C) with or without LGM2605 administration
same,autophagy markers (LC3BII/LC3BI ratio; Map1lc3b and BNIP3 mRNA),[2]; cardiac tissue from septic mice,Neither marker was alleviated by LGM2605
same,expression of the mitochondrial damage marker BNIP3,[2]; septic mice following LGM2605 administration,trend for reduced expression of the mitochondrial damage marker BNIP3
